In brackets after ≈: the same amount, converted by molar mass. Like-named read-outs stand apart in the source and are kept apart here.
Legend:
[1] = system: Edwardsiella tarda; assay: microbe, parasite or virus in culture; assay type: cell-based; conditions: read-out: MIC, Et (Edwardsiella tarda)
[2] = system: Vibrio anguillarum; assay: microbe, parasite or virus in culture; assay type: cell-based; conditions: read-out: MIC, Va (Vibrio anguillarum)
[3] = system: Vibrio parahaemolyticus; assay: microbe, parasite or virus in culture; assay type: cell-based; conditions: read-out: MIC, Vp (Vibrio parahaemolyticus)
[4] = system: Aeromonas hydrophilia; assay: microbe, parasite or virus in culture; assay type: cell-based; conditions: read-out: MIC, Ah (Aeromonas hydrophilia)
[5] = system: Xanthomonas oryzae pv. oryzicola; assay: microbe, parasite or virus in culture; assay type: cell-based; conditions: 24 h, read-out: MIC, Xa (Xanthomonas oryzae pv. oryzicola)
[6] = system: Xanthomonas oryzae pv. oryzae; assay: microbe, parasite or virus in culture; assay type: cell-based; conditions: 24 h, read-out: MIC, Xe (Xanthomonas oryzae pv. oryzae)
[7] = system: Propionibacterium acnes (ATCC6919); assay: Antimicrobial assay against P. acnes (to exclude false anti-inflammatory activity); conditions: Cutibacterium acnes, ATCC6919, read-out: P. acnes MIC
[8] = system: Colletotrichum gloeosporioides; assay: Antimicrobial MIC assay, Colletotrichum gloeosporioides; assay type: cell-based; conditions: 28 °C, 3-4 days, read-out: MIC, Cg (Colletotrichum gloeosporioides)
[9] = system: THP-1 cells; assay: MTT viability of THP-1 cells (safe concentration); conditions: concentration range of THP-1 cells viability over 80%, 36 h
[10] = system: Fusarium oxysporum; assay: Antimicrobial MIC assay, Fusarium oxysporum; assay type: cell-based; conditions: 28 °C, 3-4 days, read-out: MIC, Fo (Fusarium oxysporum)
[11] = system: Rhizoctonia solani; assay: Antimicrobial MIC assay, Rhizoctonia solani; assay type: cell-based; conditions: 28 °C, 3-4 days, read-out: MIC, Rs (Rhizoctonia solani)
[12] = system: THP-1 cells; conditions: human, 36 h

| SMILES | MIC [5] | MIC [6] | MIC [7] | MIC [8] | THP-1 Cells SC (safe concentration) [9] | MIC [10] | also measured |
| --- | --- | --- | --- | --- | --- | --- | --- |
| O=C(N[C@H](CO)[C@H](O)c1ccc([N+](=O)[O-])cc1)C(Cl)Cl [Chloromycetin, reference compound] | 12.5 µg/mL (≈ 38.7 µM) | 12.5 µg/mL (≈ 38.7 µM) | – | – | – | – | MIC [1]: 2 µg/mL (≈ 6.19 µM); MIC [2]: 0.5 µg/mL (≈ 1.55 µM); MIC [3]: 2 µg/mL (≈ 6.19 µM); MIC [4]: 2 µg/mL (≈ 6.19 µM) |
| CC1(C)C=Cc2c(ccc3c2[N+]([O-])=C2C3=CC34NC(=O)C5(CCCN5C3=O)CC4C2(C)C)O1 (stereo not shown) [Compound 1, Asperthrin A] | 12.5 µg/mL (≈ 28.1 µM) | 50 µg/mL (≈ 112 µM) | > 5 µM | > 100 µg/mL | 0 to 5 µM | > 100 µg/mL | MIC [1]: 16 µg/mL (≈ 35.9 µM); MIC [2]: 8 µg/mL (≈ 18 µM); MIC [3]: 16 µg/mL (≈ 35.9 µM); MIC [4]: 32 µg/mL (≈ 71.8 µM) |
| CC(=O)OC1C23NC(=O)C4(CCCN4C2=O)CC3C(C)(C)C12C(=O)Nc1c2ccc2c1C=CC(C)(C)O2 (stereo not shown) [Compound 5, Asperthrin E] | > 100 µg/mL | > 100 µg/mL | > 40 µM | – | 0 to 40 µM | – | MIC ([8]; agricultural pathogenic fungus): > 100 µg/mL; MIC ([11]; agricultural pathogenic fungus): 25 µg/mL (≈ 49.4 µM); MIC ([10]; agricultural pathogenic fungus): > 100 µg/mL |
| CC1(C)C=Cc2c(ccc3c2NC24N5C(=O)C6(O)CCCN6C(=O)C5CC32OC(CO)C4(C)C)O1 (stereo not shown) [Compound 6, Asperthrin F] | – | – | > 50 µM | – | 0 to 50 µM | – | – |
| CC1(C)C=Cc2c(ccc3c2NC(=O)[C@@]32[C@H](O)[C@@]34NC(=O)[C@]5(CCCN5C3=O)C[C@H]4C2(C)C)O1 [Compound 9, sclerotiamide] | > 100 µg/mL | > 100 µg/mL | > 50 µM | > 100 µg/mL | 0 to 50 µM | > 100 µg/mL | MIC [11]: 25 µg/mL (≈ 53.9 µM) |
| CC1(C)C=Cc2c(ccc3c2N(O)C(=O)C32C(O)C34NC(=O)C5(CCCN5C3=O)CC4C2(C)C)O1 (stereo not shown) [Compound 10, notoamide H] | > 100 µg/mL | > 100 µg/mL | > 50 µM | > 100 µg/mL | 0 to 50 µM | > 100 µg/mL | MIC [11]: 25 µg/mL (≈ 52.1 µM) |
| CC1(C)C=Cc2c(ccc3c4c([nH]c23)C(C)(C)[C@@H]2C[C@]35CCCN3C(=O)[C@]2(NC5=O)[C@H]4O)O1 [Compound 12, notoamide R] | – | – | > 50 µM | – | 0 to 50 µM | – | – |
| CC(=O)N1CCN(c2ccc(OCC3COC(Cn4ccnc4)(c4ccc(Cl)cc4Cl)O3)cc2)CC1 (stereo not shown) [Ketoconazole, ketoconazole, reference compound] | – | – | – | – | – | – | MIC ([8]; agricultural pathogenic fungus): 12.5 µg/mL (≈ 23.5 µM); MIC ([11]; agricultural pathogenic fungus): 0.78 µg/mL (≈ 1.47 µM); MIC ([10]; agricultural pathogenic fungus): 100 µg/mL (≈ 188 µM) |
| CC1=C(/C=C/C(C)=C/C=C/C(C)=C/C(=O)O)C(C)(C)CCC1 [Tretinoin, reference compound] | – | – | > 50 µM | – | – | – | THP-1 Cells SC (safe concentration) [12]: 0 to 50 µM |

— PMC8002477, “Bioactive Indole Diketopiperazine Alkaloids from the Marine Endophytic Fungus Aspergillus sp. YJ191021” (Marine Drugs, 2021)
